# In patent US20150111771A1, “Method for Identifying Agents Capable of Inducing Respiratory Sensitization and Array and Analytical Kits for Use in the Method” (SENZAGEN AB, priority 2012, published 2015):
# Like-named read-outs stand apart in the source and are kept apart here.
# What was measured:
# [1] = test system: respiratory sensitization; conditions: cited from earlier work
# [2] = Max solubility of reference chemicals in cell medium; conditions: given for non-toxic compounds insoluble at 500 μM
# MUTZ-3 cells [3] = assay: GARD transcriptional profiling of stimulated MUTZ-3 with GARD Respiratory Prediction Signature (PCA / SVM classification); conditions: for Transcriptional profile in PCA based on GRPS, by mechanistic subdomain: 24 h stimulation, 302 GRPS transcripts (FIG. 5B, 5C)
# Description: Cultures were maintained at 200.000 cells/ml during expansion, with a media change every 3-4 days. No differentiating steps were performed and instead, the proliferating progenitor MUTZ-3 was used for stimulations. Prior to each experiment, the cells were immunophenotyped using flow cytometry as a quality control. Cells were seeded in 6-well plates at 200.000 cells/ml. Stock solutions of each compound were prepared in either DMSO or distilled water, and were subsequently diluted so the in-well concentrations corresponded to the GARD input concentration, and in-well concentrations of DMSO were 0.1%. Cells were incubated for 24 h at 37° C. and 5% CO2. Thereafter, cells were harvested and analyzed by flow cytometry. In parallel, harvested cells were lysed in TRIzol reagent (Invitrogen) and stored at −20° C. until RNA extraction. Stimulations with chemicals were performed in three individual experiments, so that triplicates samples were obtained.
# In short, a phenotypic control of MUTZ-3 was performed prior to chemical stimulation. Stimulated cells were harvested and RNA was isolated. A control of the maturity state of the cells was performed by flow cytometric analysis of CD86. Preparation of cDNA and hybridization, washing and scanning of the Human Gene 1.0 ST Arrays (Affymetrix, Santa Clara, Calif., USA) was performed, according to standardized protocols provided by the manufacturer (Affymetrix).
# In short, microarray data were normalized and quality checked with the RMA algorithm, using Affymetrix Expression Console (Affymetrix). […] The biological relevance of the GRPS was explored using Ingenuity Pathways Analysis (IPA) (Ingenuity Systems, Inc. Mountain View, USA), by performing a ‘Core Analysis’. […] Biological relevance was established by exploring the Canonical Pathways associated with input molecules.
# The data set was divided into a training set and a test set, consisting of 70% and 30%, of the chemical compounds, respectively. The division was performed randomly, while maintaining the proportions of sensitizers and non-sensitizers in each subset at the same ratio as in the complete data set. A test biomarker signature was identified in the training set, using ANOVA filtering and backward elimination, as described above.
# In addition, the test set contained nine samples of DMSO and unstimulated controls respectively. […] Any samples included in this analysis are inappropriate to include in a test set due to the risk of over fitting.
# MUTZ-3 cells [4] = assay: Cytotoxicity by propidium iodide staining, relative viability of stimulated cells (Rv90); format: cell-based, human; conditions: concentration yielding 90% relative viability
# Description: All chemicals were from Sigma-Aldrich, St. Louis, Mo., USA. Compounds were dissolved in either dimethyl sulfoxide (DMSO) or distilled water.
# [5] = test system: CD86 expression of MUTZ-3 cells; assay: CD86 expression of MUTZ-3 cells following chemical stimulation (flow cytometry); format: cell-based, human; conditions: 24 h at GARD input concentration; student's t-test vs corresponding vehicle, p<0.05, n=3
# Description: FIG. 4: CD86 expression of MUTZ-3 cells following chemical stimulations. Data shown is an average of (chemical stimulations, n=3, DMSO and unstimulated cells (n=6), with error bars showing standard deviation. Statistical significance was determined by student's t-test, comparing each stimulation with its corresponding vehicle, with p<0.05 indicated by *.
# Br J Haematol 2007, 138(3):281-290). […] Thereafter, cells were harvested and analyzed by flow cytometry.
# All cell surface staining and washing steps were performed in PBS containing 1% BSA (w/v). Cells were incubated with specific mouse mAbs for 15 min at 4° C. The following mAbs were used for flow cytometry: FITC-conjugated CD1a (DakoCytomation, Glostrup, Denmark), CD34, CD86, and HLA-DR (BD Biosciences), PE-conjugated CD14 (DakoCytomation), CD54 and CD80 (BD Biosciences). Mouse IgG1, conjugated to FITC or PE were used as isotype controls (BD Biosciences) and PI was used to assess cell viability. […]
# Prior to chemical challenge, the cells were quality controlled by measuring the cellular expression of common myeloid and dendritic cell markers using flow cytometry. […] Following chemical stimulation, the general maturity state of the cells was controlled again, as determined by the expression of the co-stimulatory marker CD86, with results presented in FIG. 4. […]
# [6] = clinical observations in humans
# [7] = external test set, biological triplicates, mapped into PCA space of train data (FIG. 6A)
smiles,measurement,setting,value
CCCCO [1-Butanol],Classification of reference chemical as respiratory sensitizer or non-sensitizer,[1],non-sensitizers
[Cl][Pt-2]([Cl])([Cl])([Cl])([Cl])[Cl].[NH4+].[NH4+] [Ammonium hexachloroplatinate],Max solubility,[2],35 µM
same,"Transcriptional profile in PCA based on GRPS, by mechanistic subdomain",MUTZ-3 cells [3],most extreme transcriptional changes
same,Classification of reference chemical as respiratory sensitizer or non-sensitizer,[1]; [6],respiratory sensitizers
N.N.O=S(=O)(O)OOS(=O)(=O)O [Ammonium persulfate],"Transcriptional profile in PCA based on GRPS, by mechanistic subdomain",MUTZ-3 cells [3],most extreme transcriptional changes
same,Classification of reference chemical as respiratory sensitizer or non-sensitizer,[1],respiratory sensitizers
Clc1ccccc1 [Chlorobenzene],Max solubility,[2],98 µM
same,Position of external test set samples in PCA plot based on the GRPS,MUTZ-3 cells [3]; [7],correctly grouped together with non-sensitizers
same,Classification of reference chemical as respiratory sensitizer or non-sensitizer,[1],non-sensitizers
O=CCCCC=O [Glutaraldehyde],"Transcriptional profile in PCA based on GRPS, by mechanistic subdomain",MUTZ-3 cells [3],groups closely with both acid anhydrides and diisocyanates
same,Classification of reference chemical as respiratory sensitizer or non-sensitizer,[1]; [6],respiratory sensitizers
same,Rv90,MUTZ-3 cells [4],10 µM
same,CD86 expression following chemical stimulation,[5],statistically significant upregulation of CD86
O=C=NCCCCCCN=C=O [Hexamethylen diisocyanate],Max solubility,[2],100 µM
same,Classification of reference chemical as respiratory sensitizer or non-sensitizer,[1]; [6],respiratory sensitizers
same,CD86 expression following chemical stimulation,[5],statistically significant upregulation of CD86
CC(C)O [Isopropanol],Classification of reference chemical as respiratory sensitizer or non-sensitizer,[1]; [6],non-sensitizers
O=C1C=CC(=O)O1 [Maleic Anhydride],Classification of reference chemical as respiratory sensitizer or non-sensitizer,[1],respiratory sensitizers
COC(=O)c1ccccc1O [Methyl salicylate],Classification of reference chemical as respiratory sensitizer or non-sensitizer,[1]; [6],non-sensitizers
O=C=Nc1ccc(Cc2ccc(N=C=O)cc2)cc1 [Methylene diphenol diisocyanate],Max solubility,[2],50 µM
same,Classification of reference chemical as respiratory sensitizer or non-sensitizer,[1]; [6],respiratory sensitizers
O=C1OC(=O)c2ccccc21 [Phtalic Anhydride],Max solubility,[2],200 µM
same,Classification of reference chemical as respiratory sensitizer or non-sensitizer,[1]; [6],respiratory sensitizers
CC(O)CO (centres unmarked) [Propylene glycol],Classification of reference chemical as respiratory sensitizer or non-sensitizer,[1]; [6],non-sensitizers
O=C(O)c1ccc2c(c1)C(=O)OC2=O [Trimellitic anhydride],Max solubility,[2],150 µM
same,Classification of reference chemical as respiratory sensitizer or non-sensitizer,[1]; [6],respiratory sensitizers
"CCCCCCCC/C=C\CCCCCCCC(=O)OCCOCC(OCCO)C1OCC(OCCO)C1OCCO (centres unmarked) [Tween 80, polyoxyethylene (20) sorbitan monooleate]",Classification of reference chemical as respiratory sensitizer or non-sensitizer,[1]; [6],non-sensitizers
O=S(=O)([O-])[O-].[Zn+2] [Zinc sulphate],Classification of reference chemical as respiratory sensitizer or non-sensitizer,[1]; [6],non-sensitizers
O=Cc1ccccc1 [benzaldehyde],Position of external test set samples in PCA plot based on the GRPS,MUTZ-3 cells [3]; [7],correctly grouped together with non-sensitizers
CCOC(=O)c1ccccc1C(=O)OCC [diethyl phtalate],Position of external test set samples in PCA plot based on the GRPS,MUTZ-3 cells [3]; [7],correctly grouped together with non-sensitizers
OCC(O)CO [glycerol],Position of external test set samples in PCA plot based on the GRPS,MUTZ-3 cells [3],correctly grouped together with non-sensitizers
CCCCCCCC(=O)O [octanoic acid],Position of external test set samples in PCA plot based on the GRPS,MUTZ-3 cells [3],correctly grouped together with non-sensitizers
Oc1ccccc1 [phenol],Position of external test set samples in PCA plot based on the GRPS,MUTZ-3 cells [3]; [7],correctly grouped together with non-sensitizers
O=C(O)c1ccccc1O [salicylic acid],Position of external test set samples in PCA plot based on the GRPS,MUTZ-3 cells [3],correctly grouped together with non-sensitizers
CCCCCCCCCCCCOS(=O)(=O)[O-].[Na+] [sodium dodecyl sulphate],Position of external test set samples in PCA plot based on the GRPS,MUTZ-3 cells [3]; [7],correctly grouped together with non-sensitizers
